Measured values from the METLIN SMRT retention time set (Domingo-Almenara et al. 2019).

Test: gradient 5% acetonitrile 3 min, to 50% in 2 min, to 85% in 15 min, held 3 min, 100 µL/min
Settings: column: Zorbax Extend-C18 2.1 x 50 mm; eluents: water / acetonitrile, 0.1% formic acid
Method in brief: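 Using water and acetonitrile that each contained 0.1% formic acid, mixtures of ~100 pure standards were separated at 100 μL/min on a Zorbax Extend-C18 column (2.1 × 50 mm, 1.8 μm). The HPLC fed a quadrupole time-of-flight mass spectrometer working in positive and negative ionization mode, with dead and dwell volumes of 40 μL and 900 μL. Data were acquired over 3 months. Retention time was read from computationally picked adduct peaks after manual inspection of each.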

Row | Compound | RP-LC retention time
1 | O=C(C1CCCN(c2nnc(-n3cccc3)s2)C1)N1CCN(c2ccccc2)CC1 (configuration not stated) | 931 s
2 | COC(=O)c1ccc(NC(=O)N2CCCC2c2cc(C(C)C)on2)cc1 (configuration not stated) | 890 s
3 | Cc1ccc2c(c1)N(S(C)(=O)=O)CCC(C(=O)Nc1ccc(C(C)C)cc1)O2 (configuration not stated) | 1130 s
4 | CCCn1cc(CCNS(=O)(=O)c2c(C)noc2C)c2cccnc21 | 779 s
5 | COc1nc2ccccc2nc1N1CCCC(C(=O)NC2CCCCC2C)C1 (configuration not stated) | 1090 s
6 | COc1ccc(NC(=O)c2cc(C(F)(F)F)n(C)n2)c(OC)c1 | 998 s
7 | Cc1ccccc1NC(=O)CN(C)S(=O)(=O)c1cc(C(=O)N2CCC(C)CC2)n(C)c1 | 954 s
8 | CCCCN1C(=O)C(C)(C(=O)Nc2ccc(OC)c(Cl)c2)Oc2cccnc21 (configuration not stated) | 1080 s
9 | COc1ccc(CNC(=O)Cn2nc3c4sc(N(C)C)nc4ncn3c2=O)cc1 | 668 s
10 | Cc1cc(C)nc(SCc2cc(=O)c(OC(=O)c3cccc([N+](=O)[O-])c3C)co2)n1 | 883 s
11 | COc1ccc(NC(=O)CN2CCc3[nH]c4c(C)ccc(F)c4c(=O)c3C2)cc1OC | 1050 s
12 | COc1ccc(S(=O)(=O)N(C(C)=O)c2ccccc2/C=C/c2cc[n+]([O-])cc2)cc1 | 785 s
13 | CCCCC(=O)Nc1cc(C(=O)O)ccc1N(C)CC1COCCO1 (configuration not stated) | 756 s
14 | CCc1ccc(C2=C(C)C(N3CCCN(C(=O)C4CCOC4)CC3)=NS2(=O)=O)cc1 (configuration not stated) | 749 s
15 | COc1cccc(C2NC(=O)NC(C)=C2C(=O)OC2CCCCCC2)c1OC (configuration not stated) | 971 s
16 | COc1ccc(CNC(=O)C2CCCN(c3nnc4ccc(C(F)(F)F)cn34)C2)cc1 (configuration not stated) | 783 s
17 | CC(C)n1cnc(S(=O)(=O)N2CCC(C(=O)Nc3ccc(Br)cc3F)CC2)c1 | 834 s
18 | O=C(NCc1ccccn1)C1CCN(c2cnc(N3CCCC3)nc2)CC1 | 547 s
19 | CN1CCCCCC(O)c2cc(C(=O)NC3CCCCC3)ccc21 (configuration not stated) | 654 s
20 | CC1CC(C)CN(CCCNC(=O)CCCOc2cc(=O)n(C)c3ccccc23)C1 (configuration not stated) | 604 s
21 | C=C1C(=O)O[C@@H]2[C@H]3O[C@]3(C)CC/C=C(/C)CC[C@@H]12 | 972 s
22 | CNC(=O)N1CC(c2nc(-c3ccccc3)no2)C2(CCOCC2)C1 (configuration not stated) | 679 s
23 | CCc1noc(NC(C)=O)c1-c1ccc(C)c(S(=O)(=O)NC2CC2)c1 | 728 s
24 | O=C(c1cnccn1)N1CCC2(CC1)CC(OCC1CC1)CCO2 (configuration not stated) | 694 s

Row | Compound | RP-LC retention time
25 | CS(=O)(=O)N1CCC(OC2CCN(C(=O)Nc3c(F)cccc3F)CC2)CC1 | 688 s
26 | CCOc1ccc(CNC(=O)Cn2ccc3ccc(N4CCOCC4)nc32)cc1 | 894 s
27 | CC(C)N1C[C@H](Oc2ccccc2)[C@@H]1C1CCN(S(=O)(=O)c2cccnc2)CC1 | 669 s
28 | Cc1c(Cl)cccc1NC(=O)CN1C(=O)CCCc2cc(S(=O)(=O)N3CCCC3)ccc21 | 879 s
29 | Cc1cc(NC(=O)N2CCN(CCn3c(C)nc4cccnc43)CC2)ccc1Br | 641 s
30 | Cn1nc(C(=O)N2CCOCC2)c2c1CCN(C(=O)Nc1cccc(Br)c1)C2 | 726 s
31 | CC(C)(Oc1ccc(Cl)cc1)C(=O)NCCN1CCN(C(=O)c2cccs2)CC1 | 592 s
32 | CN(C)S(=O)(=O)c1ccc(C(=O)Nc2nc(-c3ccc4c(c3)OCO4)cs2)cc1 | 910 s
33 | Cc1oc(C2CCN(C(=O)Nc3ccc(F)cc3)CC2)nc1C(=O)N1CCOCC1 | 686 s
34 | Cc1csc(NC(=O)Cn2ccc3ccc(-c4nnc(C)o4)cc32)n1 | 716 s
35 | CCCNC(=O)C1CCN(c2cc(SCC(=O)Nc3ccc(C(=O)OCC)cc3)ncn2)CC1 | 781 s
36 | Cc1cccc(N2CCN(C(=S)Nc3ccc4nc(N5CCN(C)CC5)cc(C)c4c3)CC2)c1C | 655 s
37 | COc1ccc(-c2ncc3c(n2)CCN(S(=O)(=O)c2ccc(OC)c(Cl)c2)C3)cc1 | 1080 s
38 | COc1cc(C=CC(=O)CC(=O)C=Cc2ccc(O)c(OC)c2)ccc1O | 891 s
39 | CCOC(=O)c1oc2ccc(S(=O)(=O)N3CCC(c4ccncc4)CC3)cc2c1C | 730 s
40 | O=C1CCCc2cc(S(=O)(=O)N3CCCC(C(=O)N4CCN(c5ccccc5)CC4)C3)ccc2N1 (configuration not stated) | 788 s
41 | CCNC(=O)Nc1ccc2c(c1)CN(C(=O)Nc1ccc3c(c1)OCCO3)CCO2 | 706 s
42 | COCC1(F)CCN(Cc2c(-c3cc(C)ccc3C)nc3cc(C)ccn23)CC1 | 636 s
43 | O=C(NC1CCCCCCC1)C1CCCN(c2cn[nH]c(=O)c2)C1 (configuration not stated) | 719 s
44 | CCOC(=O)c1c(C)[nH]c(C(=O)N2CCCC(C(=O)NCCC(C)C)C2)c1C (configuration not stated) | 798 s
45 | COCC(=O)N(C1CCOCC1)C1CCN(S(=O)(=O)c2cccnc2)CC1 | 641 s
46 | Cc1nc(N2CCCC(C(=O)Nc3ccc4c(c3)OCCO4)C2)c2c(C)c(C)oc2n1 (configuration not stated) | 846 s
47 | CCn1c(=O)sc2cc(S(=O)(=O)N3CCC(C(=O)Nc4ncccc4C)CC3)ccc21 | 666 s

Next, values leading:

Row | RP-LC retention time | Compound
48 | 719 s | O=C(NCc1ccc2c(c1)OCO2)C1CCN(C(=O)c2ccccc2F)CC1
49 | 774 s | CCn1cc(CCNS(=O)(=O)c2cccc(F)c2)c2cccnc21
50 | 854 s | O=C(Cn1cccc1-c1nnc(-c2ccccc2)o1)NCc1cccs1
51 | 984 s | Cc1ccc(N2CC(C(=O)N3CCCC3c3nc(-c4cccc(C)c4)no3)CC2=O)cc1 (configuration not stated)
52 | 1100 s | COc1ccc(-c2nc(-c3cn(-c4cccc(Cl)c4)nn3)no2)cc1
53 | 706 s | O=C(c1cccc2[nH]cc(CN3CCCC3)c12)N1CCN(c2ccccc2)CC1
54 | 920 s | O=c1c2c(CO)c(-c3ccccc3)nn2ccn1Cc1cccc(F)c1
55 | 591 s | CCCn1nc(C)cc1CN(C)C(=O)c1cn2ccccc2n1
56 | 769 s | CCN(CC)C(=O)CC(c1cc(OC)c(OC)c(OC)c1)N1Cc2ccccc2C1=O (configuration not stated)
57 | 996 s | CCc1cccc(C)c1Nc1c(-c2ccc(C)cc2)nc2cnccn12
58 | 867 s | CC(C(=O)Nc1cc(F)ccc1F)C1CCN(C(=O)Nc2ccccc2)CC1 (configuration not stated)
59 | 1080 s | O=C(c1sc(N2CCCCC2)nc1-c1ccccc1)c1c[nH]c2ccccc12
60 | 912 s | CCCC(=O)Nc1ccc(C(=O)Nc2nc(-c3ccccc3)cs2)cc1
61 | 1190 s | C=CCn1c2ccccc2c2nnc(SC(CC)C(=O)Nc3nc(-c4ccccc4)cs3)nc21 (configuration not stated)
62 | 875 s | O=C(Cc1ccccc1F)N1CCCn2nc(-c3cccs3)cc2C1
63 | 825 s | CC1(C)CS(=O)(=O)N(c2ccc(C(=O)NCCc3c[nH]c4ccccc34)cc2)C1=O
64 | 1140 s | Cc1cccc(S(=O)(=O)N2CCc3nc(-c4ccc(F)cc4)ncc3C2)c1
65 | 667 s | COc1ccccc1NC(=O)N1CCCC(Cn2cnc3cccnc32)C1 (configuration not stated)
66 | 805 s | CCCNC(=O)N1c2ccccc2NC2=C(C(=O)CC(c3ccco3)C2)C1c1ccc(OC)cc1 (configuration not stated)
67 | 821 s | O=C(Cn1ccn2nc(-c3ccc(F)cc3)c(CO)c2c1=O)Nc1ccc(F)cc1F

Row | RP-LC retention time | Compound
68 | 670 s | Cc1ccc(-n2nnc(C(=O)O)c2-c2ccccn2)cc1
69 | 965 s | CCCn1c(=O)sc2cc(S(=O)(=O)N3CCC(C(=O)Nc4ccccc4)CC3)ccc21
70 | 1090 s | Cc1nn(CC(=O)NC2CCCCCC2)c(=O)c2c(-n3cccc3)n(-c3cccc(F)c3)nc12
71 | 840 s | COc1ccc(-c2cc3c4nn(CC(=O)Nc5cccc(C)c5C)c(=O)n4ccn3n2)cc1
72 | 688 s | O=C(c1cccs1)N1CCCC(c2nncn2-c2ccccc2)C1 (configuration not stated)
73 | 852 s | COc1cc(NC(=O)N2CCC(c3cnn(-c4ccccc4)c3)CC2)cc(OC)c1OC
74 | 617 s | Cc1nc(OC(C)C)cc(N2CCN(C(=O)CCc3ccccc3)CC2)n1
75 | 1050 s | CC(C)(C)c1noc(-c2ccc(=O)n(Cc3cccc(F)c3)n2)n1
76 | 914 s | O=S(=O)(NCC1CCCO1)c1ccc(Cl)c(-c2nnc(-c3ccccc3)o2)c1 (configuration not stated)
77 | 782 s | Cc1cccnc1NC(=O)C1c2ccccc2C(=O)N(Cc2ccccc2)C12CCCC2 (configuration not stated)
78 | 689 s | Cc1cccc(N2CCn3c2nc2c3c(=O)n(CC(=O)O)c(=O)n2C)c1
79 | 707 s | Cn1c(C(=O)NCCCN2CCC(Cc3ccccc3)CC2)cc2c(=O)n(C)c3ccccc3c21
80 | 871 s | CCCNC(=O)Cn1c(C)cc(=O)n2nc(-c3ccc(Cl)cc3)nc12
81 | 694 s | O=C(NC1CC1)C1CCN(Cc2cc3ccccc3n2Cc2ccccc2)CC1
82 | 690 s | CCc1c(C(=O)O)nnn1-c1ccccc1F
83 | 623 s | Cc1nn(C)c(C)c1CNC(=O)CN1CCN(Cc2ccc(F)cc2)C1=O
84 | 954 s | Cc1ccc2c(c1)N(C(=O)Cn1cnc(-c3nc(-c4ccccc4)cs3)c1)CCO2
85 | 832 s | CCOC(=O)CNC(=O)NC(C(=O)N1CCc2ccccc21)c1ccccc1 (configuration not stated)
86 | 719 s | COc1cc(NC(=O)C(C)Oc2ccc(=O)n(-c3ccc(F)cc3)n2)cc(OC)c1OC (configuration not stated)
87 | 916 s | CCC(C(=O)Nc1cc(-c2cn3nc(OC)ccc3n2)ccc1F)c1ccccc1 (configuration not stated)
